Key:
Type in all cases: in vivo, rat
ovariectomized rats [1] = test: Antiobesity effect: body weight changes in ovariectomized rats; settings: forced oral administration once a day for 14 days after ovariectomy (FIG. 2)
Excerpt: Female Wister-strain rats at 7 weeks of age were ovariectomized and treated with each sample once a day by forced oral administration using a metal gastric tube for 14 days after surgery. Each group consisted of 8 animals (n=8). The animals were weighed to evaluate the effect on obesity due to increased appetite after the menopause. The samples used were 17β estradiol as a positive control and genistein as a reference sample, which is a major compound of soybean isoflavone. The SDG sample was composition 4.

ovariectomized rats [2] = test: Uterine weight in ovariectomized rats
Excerpt: (§1) Wistar-strain female rats (Charles River Japan, Inc.) were used, among which 41 animals were ovariectomized at 6 weeks of age and 9 animals were sham-operated at the same age, and raised on not-purified chow (CE 2; Clea Japan). After a week, the ovariectomized rats were divided into […]. The sham-operated non-ovariectomized group […] was used as a positive control.
(§2) Group I and group V and non-ovariectomized group had free access for 4 weeks to a basic diet consisting of AIN-93M Mix purified diet without Ca (Oriental Yeast Co., Ltd.). Group II, group III and group IV were fed with the basic diet supplemented with 0.1% each of soybean isoflavone, SDG (composition 4), and a combination of soybean isoflavone and SDG, respectively. Group V was treated with 17β estradiol at 1 μg/day by subcutaneous administration through the period of ingesting the test diet. During the raising period, the temperature at the tail skin of the rat was measured with a precision thermometer BAT-12R (Physitemp).
At the end of the studies in Example 7, the rats were autopsied and measured for uterine weight.

ovariectomized rats [3] = test: Bone mass (femoral dry weight) in ovariectomized rats; settings: 4 weeks
Excerpt: (§3) It is known that after the menopause bone mass decreases through the activation of osteoclasts due to estrogen decline and causes osteoporotic symptoms. Estrogen decline may disturb the balance of lipid metabolism to cause symptoms such as hyperlipidemia and hypercholesterolemia. Ovariectomized female rats are commonly used as model animals of menopausal symptoms because ovariectomy induces the above symptoms due to the decline of estrogen levels. […] Wistar-strain female rats (Charles River Japan, Inc.) were used, among which 34 animals were ovariectomized (OVX) at 6 weeks of age and 9 animals were sham-operated (Sham) at the same age, and raised on not-purified chow (CE 2; Clea Japan). After 2 weeks, the ovariectomized rats were divided into 4 groups (n=8-9) called groups I to IV. The sham-operated non-ovariectomized group (group V, n=9) was used as a positive control. Group I and group V were free access for 4 weeks to a basic diet consisting of AIN-93M Mix purified diet without Ca (Oriental Yeast Co., Ltd.). […] On the end date of raising the rats, they were weighed and then anatomized to collect blood and dissect the right femur. After adherent tissues were removed, the femur dissected from the rat's right leg was dried at 100° C. for 24 hours and weighed.

ovariectomized rats [4] = test: Blood triglyceride levels in ovariectomized rats; settings: 0.1% in diet, 4 weeks
Excerpt: as §3, with “Evaluation of lipid metabolism-improving effect: Plasma was isolated” for “After adherent tissues were removed, the femur dissected”, “rat blood and assayed” for “the rat's right leg was dried at 100° C.”, “triglyceride by an automatic analyzer (Hitachi).” for “24 hours and weighed.”

ovariectomized rats [5] = test: Hot flashes model: temperature at the tail skin of ovariectomized rats; settings: 0.1% in diet, 4 weeks (FIG. 3)
Procedure: A sharp decline of estrogen levels after the menopause invites hormone imbalance and autonomic failure to cause vasomotor disturbance-like symptoms such as hot flashes. In experimental animals, ovariectomy of female rats induces a rise in the temperature at the tail skin and symptoms corresponding to hot flashes among menopausal symptoms. The temperature at the tail skin was measured in ovariectomized rats treated with SDG and soybean isoflavone.
as §1
as §2, with “Group V was treated with 17β estradiol at 1 μg/day by subcutaneous administration through the period of ingesting the test diet.” left out

C[C@]12CC[C@@H]3c4ccc(O)cc4CC[C@H]3[C@@H]1CC[C@@H]2O [17β estradiol]
Body weight gain (ovariectomized rats [1]; 0.02 mg/kg): body weight gain was inhibited | Uterine weight (ovariectomized rats [2]; 1 μg/day subcutaneous administration, ***P < 0.001 vs. group I): 443.9 ± 28.8*** mg | Uterine atrophy (ovariectomized rats [2]; autopsy at the end of Example 7): did not show uterine atrophy

O=c1c(-c2ccc(O)cc2)coc2cc(O)cc(O)c12 [genistein]
Body weight gain (ovariectomized rats [1]; 100 mg/Kg): body weight gain was inhibited

secoisolariciresinol diglycoside [composition 4]
Femoral dry weight (per 100 g body weight) (ovariectomized rats [3]; ovariectomized Wistar female rats, basic diet supplemented with 0.1% of sample): 90.9 ± 2.7 mg | Inhibition of bone mass decline vs group I (ovariectomized control) (ovariectomized rats [3]; ovariectomized rats, 0.1% in diet): tendency of inhibiting bone mass decline | Inhibition of triglyceride increase vs group I (ovariectomized rats [4]): significant inhibitory effect | Blood triglyceride (ovariectomized rats [4]; plasma, *p<0.05, ** vs. group I): 32.0 ± 3.2* mg/dl | Body weight gain (ovariectomized rats [1]; 50 mg/Kg): body weight gain was inhibited | Rise in the temperature at the tail skin (ovariectomized rats [5]): the rise was inhibited | Uterine weight (ovariectomized rats [2]; 0.1% in diet, 4 weeks): 105.5 ± 6.8 mg
